Where two headings read alike, the source gives them in different places. Marks after values point to notes of the source that are not given here.
What was measured:
[1] = test system: E. coli (K-12 BW25113); format: cell-based, Escherichia coli; design: MIC, E. coli, MHB− / MIC, E. coli, MHB+: unit not given here; settings: for MIC, E. coli, MHB−: MHB without sodium bicarbonate
Protocol: (§1) In the following experiments, bacterial cells were cultured in 96-well microtiter plates in cation-adjusted Mueller-Hinton Broth (MHB) for 18 h at 37° C. The main strains used in this study were E. coli (K-12 BW25113) (placed in stationary incubator) and S. aureus (Strain Newman) (incubated at 250 r.p.m). Knockout strains (ΔtolcC and ΔychM) were used from the Keio knockout collection (Baba, T. et al. Construction of Escherichia coli K-12 in-frame, single-gene knockout mutants: the Keio collection. Mol Syst Biol 2, 2006 0008, doi:10.1038/msb4100050 (2006)). For minimum concentration for inhibition (MIC) determination and checkerboard analyses, Clinical & Laboratory Standards Institute (CLSI) protocol was used. […] DiSC3 loading of S. aureus cells was performed as previously described (Farha, M. A., Verschoor, C. P., Bowdish, D. & Brown, E. D. Collapsing the proton motive force to identify synergistic combinations against Staphylococcus aureus. Chemistry & biology 20, 1168-1178, doi:10.1016/j.chembiol.2013.07.006 (2013)). CCCP concentration of 20 μM was used. pH adjustments were made by addition of HCl or NaOH. INT assay and ATP bioluminescence assays were performed as previously described (Farha, M. A., Verschoor, C. P., Bowdish, D. & Brown, E. D. Collapsing the proton motive force to identify synergistic combinations against Staphylococcus aureus. Chemistry & biology 20, 1168-1178, doi:10.1016/j.chembiol.2013.07.006 (2013)). For chemical-genomic studies, the Keio library was grown overnight in cation-adjusted MHB broth, in 384-well plates. From these, treatment plates (25 mM sodium bicarbonate, or a sterile water control) were inoculated and grown for 15 hours at 37° C., in a stationary incubator. Data was normalized according to Mangat et al (Mangat, C. S., Bharat, A., Gehrke, S. S. & Brown, E. D. Rank ordering plate data facilitates data visualization and normalization in high-throughput screening. J Biomol Screen 19, 1314-1320, doi:10.1177/1087057114534298 (2014)), with gene products and GO terms mined from EcoCyc. The GFP promoter library (Keseler, I. M. et al. EcoCyc: fusing model organism databases with systems biology. Nucleic Acids Res 41, D605-612, doi:10.1093/nar/gks1027 (2013)) was grown for 18 hours at ambient temperature with the same inoculation strategy as with the Keio collection. The analysis pipeline of Zaslaver et al (Zaslaver, A. et al. A comprehensive library of fluorescent transcriptional reporters for Escherichia coli. Nat Methods 3, 623-628, doi:10.1038/nmeth895 (2006)) was used to generate maps of promoter activity, from which lists of promoters with increased or decreased activity were compiled.

[2] = test system: Acinetobacter baumannii; experiment: MIC determination (CLSI protocol); format: cell-based
Protocol: as §1, with “The GFP promoter library (Keseler, I. M. et al. EcoCyc: fusing model organism databases with systems biology. Nucleic Acids Res 41, D605-612, doi:10.1093/nar/gks1027 (2013)) was grown for 18 hours at ambient temperature with the same inoculation strategy as with the Keio collection. The analysis pipeline of Zaslaver et al (Zaslaver, A. et al. A comprehensive library of fluorescent transcriptional reporters for Escherichia coli. Nat Methods 3, 623-628, doi:10.1038/nmeth895 (2006)) was used to generate maps of promoter activity, from which lists of promoters with increased or decreased activity were compiled.” left out

[3] = test system: Klebsiella pneumoniae; experiment: MIC determination (CLSI protocol); format: cell-based
Protocol: as §1, with “The GFP promoter library (Keseler, I. M. et al. EcoCyc: fusing model organism databases with systems biology. Nucleic Acids Res 41, D605-612, doi:10.1093/nar/gks1027 (2013)) was grown for 18 hours at ambient temperature with the same inoculation strategy as with the Keio collection. The analysis pipeline of Zaslaver et al (Zaslaver, A. et al. A comprehensive library of fluorescent transcriptional reporters for Escherichia coli. Nat Methods 3, 623-628, doi:10.1038/nmeth895 (2006)) was used to generate maps of promoter activity, from which lists of promoters with increased or decreased activity were compiled.” left out

[4] = test system: Pseudomonas aeruginosa; experiment: MIC determination (CLSI protocol); format: cell-based
Protocol: as §1, with “The GFP promoter library (Keseler, I. M. et al. EcoCyc: fusing model organism databases with systems biology. Nucleic Acids Res 41, D605-612, doi:10.1093/nar/gks1027 (2013)) was grown for 18 hours at ambient temperature with the same inoculation strategy as with the Keio collection. The analysis pipeline of Zaslaver et al (Zaslaver, A. et al. A comprehensive library of fluorescent transcriptional reporters for Escherichia coli. Nat Methods 3, 623-628, doi:10.1038/nmeth895 (2006)) was used to generate maps of promoter activity, from which lists of promoters with increased or decreased activity were compiled.” left out

[5] = test system: S. aureus (Strain Newman); experiment: MIC determination (CLSI protocol) in MHB; format: cell-based, Staphylococcus aureus
Protocol: as §1

[6] = test system: Enterococcus faecium
Protocol: In the following experiments, bacterial cells were cultured in 96-well microtiter plates in cation-adjusted Mueller-Hinton Broth (MHB) for 18 h at 37° C. The main strains used in this study were E. coli (K-12 BW25113) (placed in stationary incubator) and S. aureus (Strain Newman) (incubated at 250 r.p.m). Knockout strains (ΔtolcC and ΔychM) were used from the Keio knockout collection (Baba, T. et al. Construction of Escherichia coli K-12 in-frame, single-gene knockout mutants: the Keio collection. Mol Syst Biol 2, 2006 0008, doi:10.1038/msb4100050 (2006)). For minimum concentration for inhibition (MIC) determination and checkerboard analyses, Clinical & Laboratory Standards Institute (CLSI) protocol was used. […] DiSC3 loading of S. aureus cells was performed as previously described (Farha, M. A., Verschoor, C. P., Bowdish, D. & Brown, E. D. Collapsing the proton motive force to identify synergistic combinations against Staphylococcus aureus. Chemistry & biology 20, 1168-1178, doi:10.1016/j.chembiol.2013.07.006 (2013)). CCCP concentration of 20 μM was used. pH adjustments were made by addition of HCl or NaOH. […]

[7] = test system: E. coli; experiment: Microdilution checkerboard analyses; format: cell-based, Escherichia coli
Protocol: as §1, with “The GFP promoter library (Keseler, I. M. et al. EcoCyc: fusing model organism databases with systems biology. Nucleic Acids Res 41, D605-612, doi:10.1093/nar/gks1027 (2013)) was grown for 18 hours at ambient temperature with the same inoculation strategy as with the Keio collection. The analysis pipeline of Zaslaver et al (Zaslaver, A. et al. A comprehensive library of fluorescent transcriptional reporters for Escherichia coli. Nat Methods 3, 623-628, doi:10.1038/nmeth895 (2006)) was used to generate maps of promoter activity, from which lists of promoters with increased or decreased activity were compiled.” left out

[8] = test system: Klebsiella pneumonia (ATCC 43816); settings: mice
Protocol: Mice were infected with Klebsiella pneumonia (ATCC 43816; inoculum=2.5×10^6 CFU/mL). Following infection, the infected mice were treated with 4 mL nebulized doses of 225 mM sodium bicarbonate using a chamber nebulizer delivery system (Kent Scientific) at 2, 12 and 24 hours post-infection. The mice were sacrificed after 36 hours, and bacterial counts enumerated.

[9] = for pH of MHB media: prior to pH-adjusting to 7.4
Excerpt: Test media were pH-adjusted upon addition of sodium bicarbonate for all studies reported herein.

[10] = test system: A. baumannii; experiment: Murine model of systemic A. baumannii infection; format: in vivo; settings: mice
Protocol: Mice were treated two-hours post-infection to allow complete organ occupancy by the injected cells.

[11] = test system: methicillin-resistance Staphylococcus aureus (MRSA) USA-300; experiment: Superficial skin infection model, tape-stripped mice; format: in vivo; settings: topical 0.5% aqueous solution with or without bicarbonate (50 mM)
Protocol: In this model, an infection is established by disrupting the skin barrier through partial removal of the epidermal layer by stripping with adhesive tape and with subsequent application of the pathogen. Tape-stripped mice infected with 4×10^6 CFU/mL A. baumannii (FIG. 4A) or 4×10^6 CFU/mL methicillin-resistance Staphylococcus aureus (MRSA) USA-300 (FIG. 4B). […] This treatment regime was also conducted for the Vehicle (1.9% Boric Acid, pH 7) as a control (n=4). Tissue samples were collected at 25 hr post-infection (FIG. 4A) and 28 hr post-infection (FIG. 4B). […] (FIG. 5).

[12] = test system: Gram-negative organisms
[13] = test system: Gram-positive organisms
[14] = fold enhancement of MIC with 25 mM sodium bicarbonate, negative = suppression

O=C([O-])O.[Na+] [Sodium bicarbonate]
MIC of sodium bicarbonate ([1]; Escherichia coli): 100 mM
MIC of sodium bicarbonate [2]: 50 mM
MIC of sodium bicarbonate [3]: 100 mM
MIC of sodium bicarbonate [4]: >100 mM
MIC of sodium bicarbonate ([5]; Staphylococcus aureus): 50 to 100 mM
MIC of sodium bicarbonate [6]: 50 to 100 mM
effect on activity of pentamidine (checkerboard) ([7]; E. coli, dose-dependent): greatly potentiated the activity of pentamidine
tolerability of nebulized bicarbonate ([8]; 225 mM nebulized): well tolerated
bacterial counts ([8]; 4 mL nebulized 225 mM sodium bicarbonate at 2, 12, 24 h, counts after 36 hours, inoculum 2.5×10^6 CFU/mL): 4×10^4-4×10^5 CFU/mL
pH of MHB media ([9]; 3.12 mM sodium bicarbonate): 7.42
pH of MHB media ([9]; 25 mM sodium bicarbonate): 7.53
pH of MHB media ([9]; 50 mM sodium bicarbonate): 7.61
pH of MHB media ([9]; 100 mM sodium bicarbonate): 7.71

CN[C@H](CC(C)C)C(=O)N[C@H]1C(=O)N[C@@H](CC(N)=O)C(=O)N[C@H]2C(=O)N[C@H]3C(=O)N[C@H](C(=O)N[C@H](C(=O)O)c4cc(O)cc(O)c4-c4cc3ccc4O)[C@H](O)c3ccc(c(Cl)c3)Oc3cc2cc(c3O[C@@H]2O[C@H](CO)[C@@H](O)[C@H](O)[C@H]2O[C@H]2C[C@](C)(N)[C@H](O)[C@H](C)O2)Oc2ccc(cc2Cl)[C@H]1O [Vancomycin]
Fold, E. coli [1, 14]: 1 fold
MIC, S. aureus, MHB− ([5]; MHB without sodium bicarbonate): 1 µg/mL
Fold, S. aureus [5, 14]: −4 fold

N=C(N)c1ccc(OCCCCCOc2ccc(C(=N)N)cc2)cc1 [pentamidine]
MIC of pentamidine, tissue culture media formulated to mimic the natural environment [1]: 1.5 µg/mL
A. baumannii organ load (spleen), combination ([10]; combination of pentamidine 10 mg/kg and novobiocin IP): total clearance
decrease of A. baumannii organ load (spleen) ([10]; pentamidine alone IP): seven
effect of addition of bicarbonate on efficacy of pentamidine in clearing MRSA infection [11]: increased the antibacterial efficacy
potentiation of antibacterial activity in the presence of bicarbonate, average [12]: 40 fold
potentiation of antibacterial activity in the presence of bicarbonate, average [13]: 50 fold

O=P([O-])([O-])[O-].[Na+].[Na+].[Na+] [trisodium phosphate]
effect on activity of dirithromycin (checkerboard) ([7]; pH not adjusted (pH ~10)): potentiated the activity of dirithromycin
effect on activity of dirithromycin (checkerboard) ([7]; pH of the medium adjusted to 7.2): loss of synergy
increase of the pH of the media ([9]; trisodium phosphate added): 3 units

Gentamicin
Fold, E. coli [1]: 8 fold
MIC, E. coli, MHB+ [1]: 0.25
effect of CCCP pre-treatment on potentiation by sodium bicarbonate [1]: abolishes the potentiation
MIC, E. coli, MHB− [1]: 2
Fold, S. aureus [5]: 2 fold

Lysozyme
effect of physiological sodium bicarbonate on inhibitory activity ([1]; E. coli, 25 mM sodium bicarbonate): enhanced the inhibitory activity
MIC in MHB ([5]; S. aureus (strain Newman), MHB): >256 ** μg/mL
MIC in MHB + 25 mM bicarbonate ([5]; S. aureus (strain Newman), MHB + 25 mM sodium bicarbonate): >256 ** μg/mL

Neomycin
Fold, E. coli [1]: 4 fold
MIC, E. coli, MHB+ [1]: 0.25
MIC, E. coli, MHB− [1]: 1
Fold, S. aureus [5]: 4 fold

Polymyxin B
Fold, E. coli [1]: −2 fold
MIC, E. coli, MHB+ [1]: 0.5
MIC, E. coli, MHB− [1]: 0.25
Fold, S. aureus [5]: 8 fold

Source: patent US12678454B2, “Bicarbonate as a potentiator for antimicrobial agents” (priority 2017, dated 2026)
